In patent US20230399312A1, “SUBSTITUTED PYRIMIDINES AND METHODS OF USE” (THERAVANCE BIOPHARMA R&D IP, LLC, priority 2020, published 2023):

Assays:
[1] = target: T1, recombinant human ALK5 (TGF-βR1) protein (Homo sapiens, UniProt P36897); test: Biochemical ALK5 (TGF-βR1) assay to measure pKi (LANCE Ultra ULight kinase assay); conditions: apparent pKi, converted from pIC50 by Cheng-Prusoff
T1 construct: purchased Life Technologies PR9075A
T1 sequence (P36897 34-503): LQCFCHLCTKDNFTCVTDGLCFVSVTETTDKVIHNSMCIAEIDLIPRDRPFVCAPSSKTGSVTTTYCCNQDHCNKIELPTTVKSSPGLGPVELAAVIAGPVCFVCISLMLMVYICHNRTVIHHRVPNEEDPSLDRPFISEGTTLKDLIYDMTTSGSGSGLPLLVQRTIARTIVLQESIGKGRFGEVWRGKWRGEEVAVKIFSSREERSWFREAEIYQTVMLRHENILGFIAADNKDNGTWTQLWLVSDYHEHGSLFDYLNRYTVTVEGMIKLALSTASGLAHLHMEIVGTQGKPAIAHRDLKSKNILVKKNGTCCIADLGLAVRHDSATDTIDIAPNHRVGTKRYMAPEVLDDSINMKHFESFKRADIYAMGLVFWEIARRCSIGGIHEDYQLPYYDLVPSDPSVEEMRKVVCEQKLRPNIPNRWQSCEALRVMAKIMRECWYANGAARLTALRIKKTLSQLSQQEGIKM
Summary of the method: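 Read-out was LANCE Ultra TR-FRET with a europium anti-phospho-Topo IIα Thr1342 antibody after EDTA quench. Kinase reaction ran 60 min at 37 °C with ATP added from a 125 μM 5× stock, after 60 min compound–enzyme equilibration at room temperature. Values are pKi from Cheng-Prusoff conversion of fitted pIC50.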

[2] = system: TGF-β-stimulated SMAD3 phosphorylation in BEAS-2B cells; test: Cellular ALK5 potency assay, inhibition of TGF-β stimulated pSMAD3 formation in BEAS-2B cells; format: cell-based; conditions: Homo sapiens, pSMAD3, TGF-β 10 ng/mL, read-out: BEAS2B pIC50 (converted)
Summary of the method: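 Human lung epithelial BEAS-2B cells were pre-treated with compound for 1 h at 37 °C, then stimulated with TGF-β (final 10 ng/mL) for 30 min before lysis. pSMAD3 was quantified by AlphaLISA and pIC50 derived from dose-dependent signal change versus TGF-β-stimulated untreated cells.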

SMILES | Ki [1] | IC50 [2]
Cc1cccc(-c2nccc(Nc3ccnc(Nc4ccc(N5CCNCC5CC(=O)O)cc4)n3)n2)n1 (stereo not drawn) [Compound 31, 2-[1-[4-[[4-[[2-(6-methyl-2-pyridyl)pyrimidin-4-yl]amino]pyrimidin-2-yl]amino]phenyl]piperazin-2-yl]acetic acid] | 0.0398 to 0.316 nM | 200 to 1260 nM
Cc1cccc(-c2nccc(Nc3ccnc(Nc4ccc(CN5C[C@@H](C)NC[C@H]5C)cc4)n3)n2)n1 [Compound 32, N2-[4-[[(2R,5R)-2,5-dimethylpiperazin-1-yl]methyl]phenyl]-N4-[2-(6-methyl-2-pyridyl)pyrimidin-4-yl]pyrimidine-2,4-diamine] | 0.0398 to 0.316 nM | 25.1 to 158 nM
Cc1cccc(-c2nccc(Nc3ccnc(Nc4ccc(C(=O)OCC5CNC5)cc4)n3)n2)n1 [Compound 33, azetidin-3-ylmethyl 4-((4-((2-(6-methylpyridin-2-yl)pyrimidin-4-yl)amino)pyrimidin-2-yl)amino)benzoate] | 0.0398 to 0.316 nM | 25.1 to 158 nM
Cc1cccc(-c2nccc(Nc3ccnc(Nc4ccc(N5C[C@H]6CC[C@@H](C5)N6)cc4)n3)n2)n1 [Compound 34, N4-[2-(6-methyl-2-pyridyl)pyrimidin-4-yl]-N2-[4-[rac-(1S,5R)-3,8-diazabicyclo[3.2.1]octan-3-yl]phenyl]pyrimidine-2,4-diamine] | 0.0398 to 0.316 nM | 25.1 to 158 nM
Fc1ccc(-c2nccc(Nc3ccnc(Nc4ccc(N5CCOCC5)cc4)n3)n2)c(F)c1 [Compound 35, N4-[2-(2,4-difluorophenyl)pyrimidin-4-yl]-N2-(4-morpholinophenyl) pyrimidine-2,4-diamine] | 3.98 to 31.6 nM | 25.1 to 158 nM
CCN1CCN(S(=O)(=O)c2ccc(Nc3nccc(Nc4ccnc(-c5cccc(C)n5)n4)n3)cc2)CC1 [Compound 38, N2-[4-(4-ethylpiperazin-1-yl)sulfonylphenyl]-N4-[2-(6-methyl-2-pyridyl)pyrimidin-4-yl]pyrimidine-2,4-diamine] | 0.0398 to 0.316 nM | 25.1 to 158 nM
Cc1cccc(-c2nccc(Nc3ccnc(Nc4csc(C(=O)NC5(CO)CCNC5)c4)n3)n2)n1 (stereo not drawn) [Compound 40, N-[3-(hydroxymethyl)pyrrolidin-3-yl]-4-[[4-[[2-(6-methyl-2-pyridyl)pyrimidin-4-yl]amino]pyrimidin-2-yl]amino]thiophene-2-carboxamide] | 0.0398 to 0.316 nM | 25.1 to 158 nM
Cc1cccc(-c2nccc(Nc3ccnc(Nc4ccc(N5CCN[C@H](CO)C5)cc4)n3)n2)n1 [Compound 46, [(2S)-4-[4-[[4-[[2-(6-methyl-2-pyridyl)pyrimidin-4-yl]amino]pyrimidin-2-yl]amino]phenyl]piperazin-2-yl]methanol] | ≤ 0.0316 nM | 25.1 to 158 nM
Cc1cccc(-c2nccc(Nc3ccnc(Nc4ccc(Cl)c(CN5CCNCC5)c4)n3)n2)n1 [Compound 49, N2-[4-chloro-3-(piperazin-1-ylmethyl)phenyl]-N4-[2-(6-methyl-2-pyridyl)pyrimidin-4-yl]pyrimidine-2,4-diamine] | 0.0398 to 0.316 nM | 25.1 to 158 nM
Cc1cccc(-c2nccc(Nc3ccnc(Nc4ccc(C(=O)O[C@H]5CCN(C)C5)cc4)n3)n2)n1 [Compound 51, [(3S)-1-methylpyrrolidin-3-yl] 4-[[4-[[2-(6-methyl-2-pyridyl)pyrimidin-4-yl]amino]pyrimidin-2-yl]amino]benzoate] | 0.0398 to 0.316 nM | 25.1 to 158 nM
Cc1cccc(-c2nccc(Nc3ccnc(Nc4ccc(C(=O)O[C@@H]5CCN(C)C5)s4)n3)n2)n1 [Compound 52, [(3R)-1-methylpyrrolidin-3-yl] 5-[[4-[[2-(6-methyl-2-pyridyl)pyrimidin-4-yl]amino]pyrimidin-2-yl]amino]thiophene-2-carboxylate] | 0.0398 to 0.316 nM | 25.1 to 158 nM
Cc1cccc(-c2nccc(Nc3ccnc(Nc4ccc(OCCO)cc4)n3)n2)n1 [Compound 54, 2-[4-[[4-[[2-(6-methyl-2-pyridyl)pyrimidin-4-yl]amino]pyrimidin-2-yl]amino]phenoxy]ethanol] | 0.398 to 3.16 nM | 25.1 to 158 nM
Cc1cccc(-c2nccc(Nc3ccnc(Nc4ccc(N5CCCC(C(=O)OC6CCN(C)C6)C5)cc4)n3)n2)n1 (stereo not drawn) [Compound 55, (1-methylpyrrolidin-3-yl) 1-[4-[[4-[[2-(6-methyl-2-pyridyl)pyrimidin-4-yl]amino]pyrimidin-2-yl]amino]phenyl]piperidine-3-carboxylate] | 0.0398 to 0.316 nM | 25.1 to 158 nM
Cc1cccc(-c2nccc(Nc3ccnc(Nc4ccc(-c5cnn(C)c5)cc4)n3)n2)n1 [Compound 56, N2-[4-(1-methylpyrazol-4-yl)phenyl]-N4-[2-(6-methyl-2-pyridyl)pyrimidin-4-yl]pyrimidine-2,4-diamine] | 0.398 to 3.16 nM | 25.1 to 158 nM
Cc1cccc(-c2nccc(Nc3ccnc(Nc4ccc(N5CCNCC5)c(CC(=O)OCC5CNC5)c4)n3)n2)n1 [Compound 57, azetidin-3-ylmethyl 2-[5-[[4-[[2-(6-methyl-2-pyridyl)pyrimidin-4-yl]amino]pyrimidin-2-yl]amino]-2-piperazin-1-yl-phenyl]acetate] | 0.0398 to 0.316 nM | 200 to 1260 nM
Cc1cccc(-c2nccc(Nc3ccnc(Nc4ccc(NC(=O)C5(O)CCNC5)cc4)n3)n2)n1 (stereo not drawn) [Compound 58, 3-hydroxy-N-[4-[[4-[[2-(6-methyl-2-pyridyl)pyrimidin-4-yl]amino]pyrimidin-2-yl]amino]phenyl]pyrrolidine-3-carboxamide] | 0.0398 to 0.316 nM | ≤ 20 nM

The next lines start with results.

Ki [1] | SMILES | IC50 [2]
0.398 to 3.16 nM | Cc1cccc(-c2nccc(Nc3ccnc(Nc4ccc(-c5cnn(CCO)c5)cc4)n3)n2)n1 [Compound 36, 2-[4-[4-[[4-[[2-(6-methyl-2-pyridyl)pyrimidin-4-yl]amino]pyrimidin-2-yl]amino]phenyl]pyrazol-1-yl]ethanol] | 25.1 to 158 nM
0.0398 to 0.316 nM | Cc1cccc(-c2nccc(Nc3ccnc(Nc4ccc(N5CCN(C(=O)CSC(CCO)C(=O)O)CC5)cc4)n3)n2)n1 (stereo not drawn) [Compound 37, 4-hydroxy-2-[2-[4-[4-[[4-[[2-(6-methyl-2-pyridyl)pyrimidin-4-yl]amino]pyrimidin-2-yl]amino]phenyl]piperazin-1-yl]-2-oxo-ethyl]sulfanyl-butanoic acid] | 200 to 1260 nM
0.0398 to 0.316 nM | Cc1cccc(-c2nccc(Nc3ccnc(Nc4cccc(CN5CCSCC5)c4)n3)n2)n1 [Compound 39, N4-[2-(6-methyl-2-pyridyl)pyrimidin-4-yl]-N2-[3-(thiomorpholinomethyl)phenyl] pyrimidine-2,4-diamine] | 25.1 to 158 nM
0.0398 to 0.316 nM | Cc1cccc(-c2nccc(Nc3ccnc(Nc4ccc(N5CCNCC5CC(=O)OCC(C)C)cc4)n3)n2)n1 (stereo not drawn) [Compound 41, isobutyl 2-[1-[4-[[4-[[2-(6-methyl-2-pyridyl)pyrimidin-4-yl]amino]pyrimidin-2-yl]amino]phenyl]piperazin-2-yl]acetate] | 25.1 to 158 nM
≤ 0.0316 nM | Cc1cccc(-c2nccc(Nc3ccnc(Nc4nc(C(=O)NCC5CNC5)cs4)n3)n2)n1 [Compound 42, N-(azetidin-3-ylmethyl)-2-[[4-[[2-(6-methyl-2-pyridyl)pyrimidin-4-yl]amino]pyrimidin-2-yl]amino]thiazole-4-carboxamide] | 25.1 to 158 nM
0.398 to 3.16 nM | Cc1cccc(-c2nccc(Nc3ccnc(Nc4ccccc4)n3)n2)n1 [Compound 43, N4-[2-(6-methyl-2-pyridyl)pyrimidin-4-yl]-N2-phenyl-pyrimidine-2,4-diamine] | ≤ 20 nM
0.0398 to 0.316 nM | Cc1cccc(-c2nccc(Nc3ccnc(Nc4nc(C(=O)NC5CNC5)cs4)n3)n2)n1 [Compound 44, N-(azetidin-3-yl)-2-[[4-[[2-(6-methyl-2-pyridyl)pyrimidin-4-yl]amino]pyrimidin-2-yl]amino]thiazole-4-carboxamide] | 25.1 to 158 nM
0.0398 to 0.316 nM | Cc1cccc(-c2nccc(Nc3ccnc(Nc4cccc(CO)c4)n3)n2)n1 [Compound 45, [3-[[4-[[2-(6-methyl-2-pyridyl)pyrimidin-4-yl]amino]pyrimidin-2-yl]amino]phenyl]methanol] | ≤ 20 nM
0.398 to 3.16 nM | CCOC(=O)Cn1cc(-c2ccc(Nc3nccc(Nc4ccnc(-c5cccc(C)n5)n4)n3)cc2)cn1 [Compound 47, ethyl 2-[4-[4-[[4-[[2-(6-methyl-2-pyridyl)pyrimidin-4-yl]amino]pyrimidin-2-yl]amino]phenyl]pyrazol-1-yl]acetate] | 25.1 to 158 nM
0.0398 to 0.316 nM | Cc1cccc(-c2nccc(Nc3ccnc(Nc4ccc(CN5CCC(C(=O)OC6CNC6)C5)cc4)n3)n2)n1 (stereo not drawn) [Compound 50, azetidin-3-yl 1-[[4-[[4-[[2-(6-methyl-2-pyridyl)pyrimidin-4-yl]amino]pyrimidin-2-yl]amino]phenyl]methyl] pyrrolidine-3-carboxylate] | 25.1 to 158 nM
0.0398 to 0.316 nM | Cc1cccc(-c2nccc(Nc3ccnc(Nc4cnn(CCN)c4)n3)n2)n1 [Compound 53, N2-[1-(2-aminoethyl)pyrazol-4-yl]-N4-[2-(6-methyl-2-pyridyl)pyrimidin-4-yl]pyrimidine-2,4-diamine] | 200 to 1260 nM
